Measurements published in patent publication US9084799B2, “Inhaled combination therapy” (Pulmagen Therapeutics (Synergy) Limited, priority 2005, dated 2015).
Read-outs that look alike come from different tables or passages of the source.

Columns and labels:
[1] = Single inhaled exposure, dose 187.5 mg; asthma patients; Bohadana et al. (1980); cited from earlier work
[2] = tested on: TS induced BAL inflammation; experiment: Tobacco smoke (TS) induced BAL inflammation, 11 daily exposures, BAL cell counts; type: in vivo, A/J mice; conditions: for % Inhibition, BAL Total cells / % Inhibition, BAL lymphocytes / % Inhibition, BAL macrophages / % Inhibition, BAL neutrophils: 24 hrs following 11 daily TS exposures
From the text: Female inbred A/J mice (body weights on initial day of use: ˜20 g) were obtained from Harlan, full barrier bred and certified free from specified micro-organisms on receipt. The mice were housed, up to 5 per cage, in individually ventilated, polycarbonate solid bottomed cages (IVC) with grade 8 aspen chip bedding. Environment (airflow, temperature and humidity) within the cages was controlled by the IVC system (Techniplast). Food (RM 1, Special Diet Services) and water were provided ad libitum. Individual animals were identified by unique coloured “pentel” markings on their tails, weighed and randomly assigned to treatment groups.
In this exposure protocol, mice were exposed in groups of 5 in individual clear polycarbonate chambers (27 cm×16 cm×12 cm). The TS from the cigarettes was allowed to enter the exposure chambers at a flow rate of 100 ml/min. In order to minimise any potential problems caused by repeated exposure to a high level of TS (6 cigarettes), the exposure of the mice to TS was increased gradually over the exposure period to a maximum of 6 cigarettes. The exposure schedule used in this study was as follows:
A further group of mice were exposed to air on a daily basis for equivalent lengths of time as controls (no TS exposure).
The trachea was cannulated using a Portex nylon intravenous cannula (pink luer fitting) shortened to approximately 8 mm. Phosphate buffered saline (PBS) containing heparin (10 units/ml) was used as the lavage fluid. A volume of 0.4 ml was gently instilled and withdrawn 3 times using a 1 ml syringe and then placed in an Eppendorf tube and kept on ice prior to subsequent determinations.
Lavage fluid was separated from cells by centrifugation and the supernatant decanted and frozen for subsequent analysis. The cell pellet was re-suspended in a known volume of PBS and total cell numbers calculated by counting a stained (Turks stain) aliquot under a microscope using a haemocytometer.
The residual cell pellet was diluted to approximately 10^5 cells per ml. A volume of 500 μl was placed in the funnel of a cytospin slide and centrifuged for 8 min at 800 rpm. The slide was air dried and stained using ‘Kwik-Diff’ solutions (Shandon) as per the proprietary instructions. When dried and cover-slipped, differential cells were counted using light microscopy. Up to 400 cells were counted by unbiased operator using light microscopy. Cells were differentiated using standard morphometric techniques.
Since tests for normality were positive the data was subjected to a one way analysis of variance test (ANOVA), followed by a Bonferroni correction for multiple comparisons in order to test for significance between treatment groups. A “p” value of <0.05 was considered to be statistically significant. Percentage inhibitions were automatically calculated within the Excel spreadsheets for the cell data using the formula below: […]

[3] = intra-nasal 0.1 mg/kg theophylline/0.1 mg/kg dexamethasone versus oral 1 mg/kg theophylline/0.3 mg/kg dexamethasone
Experimental: (§1) The mice were terminally anaesthetised and blood collected by cardiac puncture into syringes containing 20 U lithium Heparin in 5 ul. The collected blood was mixed and decanted into eppendorf tubes before centrifugation in a microfuge. Plasma was collected and stored at −80° C. prior to analysis by an HPLC/MS/MS method. The equipment used in the measurement of plasma levels were a Micromann Quatro Micro Mass Spectrometer (Micromass UK Limited) and a Waters 2795 Alliance HT liquid chromatograph (Waters USA).
(§2) Samples were prepared for analysis by adding 200 μl of acetonitrile (containing 0.25 mg/l dextrorphan as an internal standard) to 50 μl of each thawed sample and standard and mixed vigorously. Each sample and standard was then centrifuged at 10000 g for 2 minutes and the supernatant removed for LC-MS/MS analysis.
(§3) Positive ions for parent compound and a specific fragment product were monitored in a Multiple Reaction Monitoring mode using a Micromass Quatro Micro Mass Spectrometer with Micromass MassLynx software version 4.0. A 25 μl aliquot of each sample and standard was injected onto the liquid chromatography system. Lowest order of quantification (LOQ) was determined as 0.016 mg/L with the detection limit being 0.003 mg/L.

[4] = cited from earlier work
in vivo = conditions: A/J, mouse, 1 hour post dosing
Experimental: as §1, §2, §3

[5] = cited from earlier work; remark: listed apart in the source
[6] = tested on: key inflammatory cells in COPD; conditions: 500 mcg inhaled twice daily, 3 months, COPD patients; Hattatowa et al. 2002; cited from earlier work
mouse model of asthma = conditions: 350 mcg/kg intra-nasally; Shen et al. 2002; cited from earlier work
[7] = Intra-nasal dosing, Dexamethasone 0.1 mg/kg
[8] = Oral dosing, Dexamethasone 0.3 mg/kg
[9] = Intra-nasal dosing, Theophylline 0.5 mg/kg
[10] = Oral dosing, Theophylline 3 mg/kg
[11] = monotherapy, oral or intra-nasal

Cn1c(=O)c2[nH]cnc2n(C)c1=O.NCCN [Aminophylline, theophylline ethylenediamine]
Net peak theophylline plasma level [1]: 0.91 mg/L

C[C@@H]1C[C@H]2[C@@H]3CCC4=CC(=O)C=C[C@]4(C)[C@@]3(F)[C@@H](O)C[C@]2(C)[C@@]1(O)C(=O)CO [Dexamethasone]
% Inhibition, BAL Total cells [2, 7]: 13%
% Inhibition, BAL lymphocytes [2, 7]: 14%
% Inhibition, BAL macrophages [2, 7]: 10%
% Inhibition, BAL neutrophils [2, 7]: 16%
% Inhibition, BAL Total cells [2, 8]: −16%
% Inhibition, BAL lymphocytes [2, 8]: −7%
% Inhibition, BAL macrophages [2, 8]: −14%
% Inhibition, BAL neutrophils [2, 8]: −46%

Cn1c(=O)c2[nH]cnc2n(C)c1=O [Theophylline, 3,7-dihydro-1,3-dimethyl-1H-purine-2,6-dione]
% Inhibition, BAL Total cells [2, 9]: 16%
% Inhibition, BAL lymphocytes [2, 9]: 14%
% Inhibition, BAL macrophages [2, 9]: 3%
% Inhibition, BAL neutrophils [2, 9]: 25%
% Inhibition, BAL Total cells [2, 10]: −11%
% Inhibition, BAL lymphocytes [2, 10]: 1%
% Inhibition, BAL macrophages [2, 10]: −4%
% Inhibition, BAL neutrophils [2, 10]: −10%
inhibition of total number of cells recovered in the BAL induced by TS exposure [2, 11]: Neither theophylline nor dexamethasone monotherapy when given orally or by the intra-nasal route significantly inhibited
inhibitory effect on specific cell types in BAL (macrophages, neutrophils, lymphocytes) [2, 11]: No statistically significant inhibitory effect
systemic theophylline levels, times lower intra-nasal vs oral [3]: ~17 times
plasma concentration of theophylline, median value ([4]; 250 or 375 mg theophylline twice daily with 400 mcg budesonide, asthma patients, Evans et al.): 8700 ng/mL
Average theophylline plasma level ([4]; Daily dose 400 mg oral, 4 weeks, Alexander et al. (1980)): 15.1 mg/L
Average theophylline plasma level ([4]; Daily dose 600 mg oral, 4 weeks, Iversen et al. (1992)): 7.1 mg/L
Average theophylline plasma level ([4]; Daily dose 300-600 mg oral, 4 weeks, Culpitt et al. (2002)): 9.5 mg/L
theophylline plasma level in 20/25 patients (average not quoted) ([4]; Phyllocontin or Uniphylline, daily dose 562-573 mg oral, 4 weeks, U.S. Pat. No. 6,025,360): had levels ≧5 mg/L
concentration at 1 h (in vivo; mean theophylline plasma level, Intra-nasal 0.1 mg/kg theophylline in combination with 0.1 mg/kg Dexamethasone, TS exposed mice): 22 ± 9 ng/mL
concentration at 1 h (in vivo; mean theophylline plasma level, Intra-nasal 0.25 mg/kg theophylline in combination with 0.1 mg/kg Dexamethasone, TS exposed mice): 45 ± 10 ng/mL
concentration at 1 h (in vivo; mean theophylline plasma level, Intra-nasal 0.5 mg/kg theophylline in combination with 0.1 mg/kg Dexamethasone, TS exposed mice): 74 ± 13 ng/mL
concentration at 1 h (in vivo; mean theophylline plasma level, Oral 1 mg/kg theophylline in combination with 0.3 mg/kg Dexamethasone, TS exposed mice): 479 ± 47 ng/mL
concentration at 1 h (in vivo; mean theophylline plasma level, Oral 3 mg/kg theophylline in combination with 0.3 mg/kg Dexamethasone, TS exposed mice): 1370 ± 192 ng/mL
concentration at 1 h (in vivo; systemic theophylline exposure (plasma level), intra-nasal administration at the doses used (0.1-0.5 mg/kg)): < 100 ng/mL
mean plasma half-life ([5]; adults): about 8 hours
bioavailability from the gastrointestinal tract ([5]; oral absorption): 90-100%
mean plasma half-life ([5]; premature neonates): approximately 30 hours
time to peak levels following ingestion ([5]; slowed by the presence of food): 1 to 2 h
mean plasma half-life ([5]; up to the age of 20): approximately 3.5 hours
mean plasma half-life ([5]; up to the first year of life): 5 h
mean plasma half-life ([5]; within the first 6 months): 12 h

(6(,11(,16(,17( )-6,9-difluoro-11-hydroxy-16-methyl-3-oxo-17-(1-oxopropoxy)androsta-1,4-diene-17-carbothioic acid S-(fluoromethyl) ester [Fluticasone]
reductions in key inflammatory cells in bronchial biopsies [6]: did not detect significant reductions

(+)-[(RS)-16a,17a-Butylidenedioxy-11b, 21-dihydroxy-1,4-pregnadiene-3,20-dione] [Budesonide]
efficacy in mouse model of asthma (mouse model of asthma): efficacious
